Data taken from publication PMC12005787, “Synthetic Lethality of SHP2 and XIAP Suppresses Proliferation and Metastasis in KRAS‐mutant Nonsmall Cell Lung Cancer” (Advanced Science, 2025).

Columns and labels:
TCPTP = molecular target: T1, TCPTP (Homo sapiens, UniProt P17706); experiment: PTPs activity assay (DiFMUP); assay type: biochemical
T1 construct: His; made in house; host or cells: E. coli
T1 sequence (P17706 1-415): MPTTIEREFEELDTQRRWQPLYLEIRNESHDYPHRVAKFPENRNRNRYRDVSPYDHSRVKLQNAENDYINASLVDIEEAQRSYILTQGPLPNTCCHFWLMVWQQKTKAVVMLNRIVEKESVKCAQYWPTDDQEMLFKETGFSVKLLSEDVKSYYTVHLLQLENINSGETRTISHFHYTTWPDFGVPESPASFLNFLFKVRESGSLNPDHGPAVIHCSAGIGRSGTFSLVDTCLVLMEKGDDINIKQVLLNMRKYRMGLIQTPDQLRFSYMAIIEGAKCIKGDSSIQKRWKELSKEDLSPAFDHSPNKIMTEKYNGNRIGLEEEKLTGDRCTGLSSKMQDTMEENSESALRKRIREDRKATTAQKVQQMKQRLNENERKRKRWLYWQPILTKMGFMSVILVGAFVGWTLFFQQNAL
Description: (§1) Catalytic activity screening methods for PTPs using candidate compounds were performed as previously described.^[ [77] ^] In brief, soluble fusion PTP proteins, His‐ΔSHP2, encompassing the peptide from amino acids 205–593 retaining PTP activity, His‐ΔSHP2^K325A, His‐ΔSHP1, encompassing the peptide from amino acids 202–595 retaining PTP activity, His‐PTP1B, His‐HePTP, His‐VHR, and His‐TCPTP were cloned, expressed, and purified in E. coli. After determining protein concentration using bicinchoninic acid (BCA) assay kit, 1 µg fusion protein, 10 µM library compound were added in 100 µL reaction mixture (55 mM 4‐(2‐hydroxyethyl)‐1‐piperazineethanesulfonic acid [HEPES], 100 mM sodium chloride [NaCl], 0.5 mM ethylenediaminetetraacetic acid [EDTA], 1 mM dithiothreitol [DTT], 0.01% Triton X‐100, 0.002% bovine serum albumin [BSA], and 0.1% dimethyl sulfoxide [DMSO]) and incubated at 37 °C for 30 min in the dark, with Na3VO4 as positive control. The detection substrate DiFMUP (50 µM) was promptly added to each reaction and functioned at 37 °C for 30 min in the dark. The fluorescence intensity was then measured using Multimode Plate Reader (λa = 358 nm, λe = 455 nm, PerkinElmer, USA).

PTP1B = molecular target: T2, PTP1B (Homo sapiens, UniProt P18031); experiment: PTPs activity assay (DiFMUP); assay type: biochemical; details: read-out: IC50 of PTPs PTP1B
T2 construct: His; made in house; host or cells: E. coli
T2 sequence (P18031 1-435): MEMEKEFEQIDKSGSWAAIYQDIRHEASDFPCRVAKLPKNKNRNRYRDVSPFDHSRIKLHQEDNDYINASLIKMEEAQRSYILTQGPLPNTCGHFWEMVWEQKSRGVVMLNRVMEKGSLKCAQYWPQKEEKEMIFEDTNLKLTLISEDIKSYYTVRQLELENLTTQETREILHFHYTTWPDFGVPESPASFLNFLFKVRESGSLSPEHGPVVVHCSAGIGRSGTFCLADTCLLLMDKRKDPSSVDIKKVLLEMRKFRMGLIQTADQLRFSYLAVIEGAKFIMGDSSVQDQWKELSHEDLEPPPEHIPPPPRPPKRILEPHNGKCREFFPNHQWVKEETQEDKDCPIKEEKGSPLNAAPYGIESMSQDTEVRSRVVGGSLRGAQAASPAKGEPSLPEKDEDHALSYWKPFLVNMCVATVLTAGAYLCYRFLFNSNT
Description: as §1

VHR = molecular target: T3, VHR (Homo sapiens, UniProt P51452); experiment: PTPs activity assay (DiFMUP); assay type: biochemical
T3 construct: His; made in house; host or cells: E. coli
T3 sequence (P51452 whole entry): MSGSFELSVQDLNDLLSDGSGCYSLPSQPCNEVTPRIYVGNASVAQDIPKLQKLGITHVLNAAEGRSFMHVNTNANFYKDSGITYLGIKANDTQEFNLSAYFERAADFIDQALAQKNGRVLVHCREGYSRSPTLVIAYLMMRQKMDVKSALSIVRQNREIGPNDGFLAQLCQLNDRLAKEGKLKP
Description: as §1

ΔSHP2 = molecular target: T4, ΔSHP2 (Homo sapiens, UniProt Q06124); experiment: PTPs activity assay (DiFMUP); assay type: biochemical
T4 construct: His‐ΔSHP2, encompassing the peptide from amino acids 205–593 retaining PTP activity; His; made in house; host or cells: E. coli
T4 sequence (Q06124 205-593): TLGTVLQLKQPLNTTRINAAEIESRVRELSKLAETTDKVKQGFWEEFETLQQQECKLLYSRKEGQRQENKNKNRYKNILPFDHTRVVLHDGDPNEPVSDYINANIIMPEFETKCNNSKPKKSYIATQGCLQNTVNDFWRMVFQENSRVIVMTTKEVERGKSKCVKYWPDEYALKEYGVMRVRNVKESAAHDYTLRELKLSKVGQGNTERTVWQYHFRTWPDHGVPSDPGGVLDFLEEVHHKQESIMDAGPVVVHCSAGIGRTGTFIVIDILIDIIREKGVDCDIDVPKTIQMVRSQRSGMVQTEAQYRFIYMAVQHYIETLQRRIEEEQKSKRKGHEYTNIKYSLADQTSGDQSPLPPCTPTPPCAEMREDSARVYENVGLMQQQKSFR
Description: as §1

ΔSHP1 = molecular target: T5, ΔSHP1 (Homo sapiens, UniProt P29350); experiment: PTPs activity assay (DiFMUP); assay type: biochemical
T5 construct: His‐ΔSHP1, encompassing the peptide from amino acids 202–595 retaining PTP activity; His; made in house; host or cells: E. coli
T5 sequence (P29350 202-595, stated change not applied): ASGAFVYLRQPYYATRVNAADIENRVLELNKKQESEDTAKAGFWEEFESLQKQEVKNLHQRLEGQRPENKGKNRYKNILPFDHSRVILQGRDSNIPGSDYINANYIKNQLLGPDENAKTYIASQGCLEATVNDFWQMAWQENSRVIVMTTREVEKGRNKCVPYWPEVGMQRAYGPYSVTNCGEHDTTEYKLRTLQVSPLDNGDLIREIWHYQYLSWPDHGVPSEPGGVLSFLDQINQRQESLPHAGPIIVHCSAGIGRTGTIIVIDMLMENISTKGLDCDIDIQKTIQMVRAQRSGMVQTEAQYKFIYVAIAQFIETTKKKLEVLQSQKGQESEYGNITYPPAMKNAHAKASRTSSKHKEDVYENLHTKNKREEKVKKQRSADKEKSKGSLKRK
Description: as §1

HePTP = molecular target: T6, HePTP (Homo sapiens, UniProt P35236); experiment: PTPs activity assay (DiFMUP); assay type: biochemical
T6 construct: His; made in house; host or cells: E. coli
T6 sequence (P35236 1-360): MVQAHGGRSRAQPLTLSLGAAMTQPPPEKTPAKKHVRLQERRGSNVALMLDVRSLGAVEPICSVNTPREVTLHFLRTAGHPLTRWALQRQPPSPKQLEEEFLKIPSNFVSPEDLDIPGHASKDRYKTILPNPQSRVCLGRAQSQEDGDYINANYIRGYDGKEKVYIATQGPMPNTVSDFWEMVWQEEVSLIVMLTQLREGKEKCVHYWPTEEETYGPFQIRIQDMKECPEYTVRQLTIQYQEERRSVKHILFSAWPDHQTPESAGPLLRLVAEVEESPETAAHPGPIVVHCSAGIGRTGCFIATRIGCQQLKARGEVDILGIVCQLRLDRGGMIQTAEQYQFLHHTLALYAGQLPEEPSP
Description: as §1

[1] = tested on: A549, NCI‐H2122, and NCI‐H1944 cells; experiment: Effect of candidate drugs on cell viability and colony formation; assay type: cell-based, human; details: 1, 10 and 50 μM viability; 10 µM colony formation
Description: supplies are listed in Supplementary Table S5. The relevant reagents for protein extraction from Escherichia coli are listed in Supplementary Table S6. Inhibitory effects of embelin on KRAS-mutant and wild-type cells are listed in Supplementary Table S7.
For the adherent cell viability assay, cells in the logarithmic growth phase were seeded in 96-well culture plates at a density of 5×103 well-1 and incubated overnight. Diluted compounds or DMSO were added, or specific treatments were incubated at 37 °C and 5% CO2 for 24 h or 48 h. Cell viability was determined using CCK-8 or CellLightTM Cell Viability Assay Kit, according to the manufacturer's protocol. The luminescence signals of the treated samples were normalized to those of the DMSO group.
For spherical cell viability assays, cells in the logarithmic growth phase were inoculated ata density of 4×10^3 well-1 into 96-well spherical cell microplates and incubated at 37 °C, 5% CO2 for 24 h or 48 h. Cell viability was measured using the CellTiter-Glo® Luminescent Cell Viability 3D Cell Viability Assay Kit, according to the manufacturer’s protocol. The remaining steps were the same as those described above.
Colony formation experiment […]
Finally, the staining results were recorded using an inverted microscope. […]

IC50 (TCPTP): > 200 µM
IC50 (PTP1B): 145 µM
IC50 (VHR): 242 µM
IC50 (ΔSHP2): 21.7 µM
IC50 (ΔSHP1): > 200 µM
IC50 (HePTP): 202 µM
Compound: CC1=NN(c2ccc(C)c(C)c2)C(=O)/C1=N\Nc1cccc(-c2cccc(C(=O)O)c2)c1O [S2229, Eltrombopag Olamine]
effect on proliferation of KRAS‐mutation cells [1]: inhibited the proliferation
